Laboratory results: article PMC9727182, “Identification of pharmacokinetic markers for safflower injection using a combination of system pharmacology, multicomponent pharmacokinetics, and quantitative proteomics study” (Frontiers in Pharmacology, 2022)
Several values for one entry are separate records, joined by “and”; a condition that tells them apart may be missing. Identical values can stand only once.

Assays:
[1] = tested on: H9c2 cardiomyocytes injured by H2O2; assay: Protection of cardiomyocytes injured by H2O2 (MTT); format: cell-based; conditions: for protection: preliminary test at maximum detected plasma concentration
Description: H9c2 cardiomyocytes obtained from Cell Bank of the Chinese Academy of Sciences (Shanghai, China) were cultured in DMEM (high glucose) supplemented with 1% P/S and 15% FBS in 5% CO2 at 37°C. The cells were collected with 0.25% trypsin, followed by re-seeding in 96-well multiplates with a density of 5×10^3 cells per well. The cell experiments were grouped as follows: normal group, model group (H2O2), administration groups and positive control groups (N-Acetyl-L-cysteine, NAC). […] After that, cells were incubated with 0.5 mg/ml of MTT for 4 h under standard condition, followed by addition of 150 µl DMSO into every well. The cell supernatants were finally removed and the optical density (OD) was recorded at 570 nm using a microplate reader (Thermo Fisher Scientific, United States). The protection rate of the compounds on H9c2 cardiomyocytes was calculated as (OD valueadministration group (or NAC group)-OD valuemodel group)/(OD valuenormal group-OD valuemodel group) ×100%.

[2] = Multicomponent pharmacokinetics in rat plasma after i.v. safflower injection (SI); conditions: for AUC(0-inf) / AUC(0-t) / Cmax / MRT inf / MRT last / Vd / clearance / half-life / concentration at 15 min: male, Sprague-Dawley, rat, plasma; for AUC(0-inf) / AUC(0-t) / Cmax / MRT inf / MRT last / Vd / clearance / half-life: iv; for detected mean maximum plasma concentration: rats, after administration of 4 ml/kg of SI; for concentration at 15 min: intravenous
Description: The animal experiments were approved by the Animal Care and Use Committee of the College of Animal Science (College of Bee Science), Fujian Agriculture and Forestry University (Approval Number: PZCASFAFU21012). 250 ± 20 g of male Sprague-Dawley (SD) rats were provided by Lab Animal Center in Fujian Medical University (Fuzhou, China).
Ten rats were divided into three groups (Low dose group, n = 4; medium and high groups, n = 3, respectively). […] For each rat, 2 ml of physiological saline was supplemented after 30 min sampling via intraperitoneal injection. The plasma samples were obtained by centrifugation at 3,000 rpm for 10 min and stored at −20°C until analysis.
Clear supernatant (5 μl) was injected into HPLC-MS for bioanalysis.
The sample was separated on a RD-C18 column (4.6 mm × 50 mm, 3.5 μm, Zhongpu Develop, China). The mobile phase incudes water with 0.1% acetic acid (A) and acetonitrile (B). […] The column temperature, flow rate and injection volume were set at 30°C, 0.5 ml/min and 5 μl, respectively.
Non-compartmental model was used to calculate the PK parameters by DAS 3.0 software (Chinese Pharmacologic Society, Beijing, China). A single-tailed t-test was carried out in the study.

[3] = Stability of 6 compounds of SI in rat plasma; conditions: for 10h in auto-sampler vials RE: extracted rat plasma; for 6h at room temperature RE / Freeze-thaw stability (three cycles) RE / Long-term stability (-80℃,15 days) RE: rat plasma
From the text: The LC-MS method was validated by linearity, limits of detection (LOD), limits of quantification (LOQ), precision, accuracy, extraction recovery, matrix effect and stability of the 6 ingredients in rat plasma. Calibration curves were plotted using weighted linear regression of the peak area ratio of analyte to the IS against the corresponding nominal concentration of the analyte. LOD and LOQ were defined as the detectable concentration at which the ratio of signal to noise was more than 3 and 10, respectively. Intra- and inter-day accuracy and precision were assessed by detecting quality control (QC) samples using five replicates of rat samples at three concentration levels on one or three validation days, respectively. Accuracy and precision were expressed by relative error (RE) and relative standard deviation (RSD), respectively. The extraction recovery and matrix effect of the 6 components at above-mentioned three concentration levels were determined. Stability was assessed under the condition of placing un-treated plasma samples at room temperature for 6 h, and extracted plasma samples in auto-sampler for 10 h, as well as placing plasma samples within freeze-thaw three cycles and at −80 °C for 15 days.

[4] = Stability in diluted SI at room temperature; conditions: analyzed at 0, 2, 4, 8, 12, 24, and 48 h
[5] = 1 h after administration (2 ml/kg of SI), preliminary test
[6] = behind 15 min after i.v. low dose administration (1 ml/kg of SI)

Row | Compound | detection in rat plasma [2, 5] | detection in rat plasma [2, 6] | AUC(0-inf) ([2]; 4 ml/kg) [ng·h/mL] | AUC(0-t) ([2]; 4 ml/kg) [ng·h/mL] | Cmax ([2]; 4 ml/kg) [ng/mL] | MRT inf ([2]; 4 ml/kg) [h] | MRT last ([2]; 4 ml/kg) [h] | Vd ([2]; 4 ml/kg) [L/kg] | clearance ([2]; 4 ml/kg) [mL/min/kg] | half-life ([2]; 4 ml/kg) [h] | detected mean maximum plasma concentration [2] | 10h in auto-sampler vials RE ([3]; spiked 40 ng/mL) [%] | 10h in auto-sampler vials RE ([3]; spiked 1000 ng/mL) [%] | 10h in auto-sampler vials RE ([3]; spiked 10000 ng/mL) [%] | 6h at room temperature RE ([3]; spiked 40 ng/mL) [%] | Freeze-thaw stability (three cycles) RE ([3]; spiked 40 ng/mL) [%] | Long-term stability (-80℃,15 days) RE ([3]; spiked 40 ng/mL) [%] | 6h at room temperature RE ([3]; spiked 1000 ng/mL) [%] | Stability RSD [4] [%] | concentration at 15 min ([2]; 2 ml/kg) [ng/mL] | also measured
1 | CC(=O)N[C@@H](CS)C(=O)O [NAC, N-Acetyl-L-cysteine, reference compound] |  |  |  |  |  |  |  |  |  |  |  |  |  |  |  |  |  |  |  |  | protection rate ([1]; 1 mM, positive drug): 6.45%
2 | C[C@@H]1O[C@@H](OC[C@H]2O[C@@H](Oc3c(-c4ccc(O)c(O)c4)oc4cc(O)cc(O)c4c3=O)[C@H](O)[C@@H](O)[C@@H]2O)[C@H](O)[C@H](O)[C@H]1O [RU, rutin] | can be detected | can’t be detected | 15.1 ± 2.23 | 12.4 ± 1.37 | 39.3 ± 1.53 | 0.36 ± 0.06 | 0.22 ± 0.03 | 0.3 ± 0.02 | 14.3 | 0.24 ± 0.04 | 0.039 μg/mL and 0.06 μM | 6.25 | 2.90 | -5.96 | -4.00 | -4.50 | 7.00 | -2.48 | 2.31 |  | protection ([1]; 0.06 μM): absence of protection; Freeze-thaw stability (three cycles) RE ([3]; spiked 1000 ng/mL): -3.06%; Long-term stability (-80℃,15 days) RE ([3]; spiked 1000 ng/mL): 3.36%; 6h at room temperature RE ([3]; spiked 10000 ng/mL): -3.71%; Freeze-thaw stability (three cycles) RE ([3]; spiked 10000 ng/mL): 0.09%; Long-term stability (-80℃,15 days) RE ([3]; spiked 10000 ng/mL): -2.80%
3 | O=C(O)[C@H]1O[C@@H](Oc2cc3oc(-c4ccc(O)cc4)cc(=O)c3c(O)c2O)[C@H](O)[C@@H](O)[C@@H]1O [SCU, scutellarin] | can be detected | can’t be detected | 358 ± 34 | 306 ± 12.5 | 327 ± 60 | 2.96 ± 1.49 | 1.57 ± 0.68 | 0.03 ± 0.01 | 0.167 | 2.84 ± 1.19 | 0.327 μg/mL and 0.7 μM | 10.63 | 0.30 | -1.48 | -6.50 | 0.00 | 6.00 | -2.90 | 4.42 |  | half-life [2]: ≥ 2.58 h; AUC(0-inf) ([2]; 2 ml/kg): 105 ± 31.5 ng·h/mL; AUC(0-t) ([2]; 2 ml/kg): 89.8 ± 21 ng·h/mL; Cmax ([2]; 2 ml/kg): 162 ± 17.4 ng/mL; MRT inf ([2]; 2 ml/kg): 2.9 ± 2.42 h; MRT last ([2]; 2 ml/kg): 1.46 ± 0.64 h; Vd ([2]; 2 ml/kg): 0.05 ± 0.02 L/kg; clearance ([2]; 2 ml/kg): 0.167 mL/min/kg; half-life ([2]; 2 ml/kg): 2.58 ± 1.84 h; protection ([1]; 0.7 μM): absence of protection; Freeze-thaw stability (three cycles) RE ([3]; spiked 1000 ng/mL): -4.00%; Long-term stability (-80℃,15 days) RE ([3]; spiked 1000 ng/mL): 2.80%; 6h at room temperature RE ([3]; spiked 10000 ng/mL): -2.06%; Freeze-thaw stability (three cycles) RE ([3]; spiked 10000 ng/mL): -5.21%; Long-term stability (-80℃,15 days) RE ([3]; spiked 10000 ng/mL): -0.81%
4 | Nc1ncnc2c1ncn2[C@@H]1O[C@H](CO)[C@@H](O)[C@H]1O [adenosine] |  |  |  |  |  |  |  |  |  |  |  |  |  |  |  |  |  |  | 2.74 | < 0.5 | 
5 | Nc1ccn([C@@H]2O[C@H](CO)[C@@H](O)[C@H]2O)c(=O)n1 [cytidine] |  |  |  |  |  |  |  |  |  |  |  |  |  |  |  |  |  |  | 1.85 | < 0.5 | 
6 | Nc1nc2c(ncn2[C@@H]2O[C@H](CO)[C@@H](O)[C@H]2O)c(=O)[nH]1 [guanosine] |  |  |  |  |  |  |  |  |  |  |  |  |  |  |  |  |  |  |  | < 0.5 | 
